This passage reports TGI and GI50 results from PubChem BioAssay (NCI).

What all share (experiment): NCI-60 cell line screen, 48 h
Assay [1] relates to DMS 114 small cell lung.
Assay [2] concerns HCT-15 colon.
Assay [3] has as its system HOP-62 NSCLC.
Assay [4] relates to NCI-H522 lung.
In assay [5] the test system is OVCAR-5 ovarian.
In assay [6] the test system is RPMI-8226 leukemia.
The test system of assay [7] is SK-MEL-2 melanoma.
For assay [8], the system named is XF 498 CNS.
Assay [9] has as its system CCRF-CEM leukemia.
Assay [10] relates to HS 578T breast.

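Tested at 5 concentrations; 48 h exposure; 96-well plates; endpoints linearly interpolated, else capped at highest concentration. Here, GI50 denotes the concentration required for 50% inhibition of growth. TGI: concentration producing complete growth inhibition.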

Consider `CCOC(=O)[C@H]1Nc2ccc(Cl)cc2[C@H]2c3ccccc3O[C@H]21`, for which the TGI in assay [1], in assay [2], in assay [3], in assay [4], in assay [5] and in assay [6] was over 100 µM throughout. The TGI in assay [7] and in assay [8] was over 100 µM throughout.
In the case of `Clc1cc(Cl)cc(Nc2nc3ccccc3nc2-c2cccs2)c1`, the TGI in [9], in assay [2], in assay [3], in assay [5], in assay [6] and in [7] was over 100 µM each time. This molecule showed a TGI in [8] of 73.2 µM.
For the molecule `CCOC(=O)C(=O)Nc1ccc(Cl)c(C(F)(F)F)c1`, the TGI in [9], in assay [1], in assay [2], in assay [3], in assay [4] and in assay [5] was over 100 µM each time. In addition, the TGI in assay [6] and in [7] was over 100 µM each time.
Turning to `C[Si]12OCCCN(CCO1)CCO2`, the TGI in assay [9], in assay [1], in assay [4], in assay [5], in assay [6] and in assay [7] was over 100 µM throughout.
For `COc1ccccc1NC(=O)C1=C(C)NC(C)=C(C(=O)Nc2ccccc2OC)C1c1cccc2c1OCO2`, the TGI in assay [9], in assay [1], in assay [2], in assay [3], in assay [5] and in assay [6] was over 100 µM throughout. For the same molecule, the TGI in assay [7] was over 100 µM.
As for `COc1ccc2[nH]cc(-c3nc(-c4c[nH]c5ccncc45)cs3)c2c1`, the GI50 is 2.45 µM in [9]; 1.95 µM in [2]; 2.08 µM in assay [3]; 2.15 µM in [10]; 1.81 µM in assay [4]; 2.37 µM in assay [5]. In addition, the results for the GI50 in assay [6] and in assay [7] were 2.08 µM and 2.05 µM, respectively. Besides, the TGI in assay [9] is 7.18 µM; in assay [2], 4.29 µM; in [3] it was 4.77 µM; in assay [10], 4.95 µM; in [4], 3.65 µM; in assay [5] it was 4.74 µM. For the same molecule, the TGI came to 4.76 µM in assay [6] and 3.91 µM in assay [7].
On to `N=C(N)c1ccc(-c2ccc(-c3ccc(F)cc3)o2)o1`, for which the GI50 in [9] was 1.84 µM; in [2] it was 0.631 µM; in assay [3] it was 1.6 µM; in assay [10], 1.95 µM; in [4], 1.36 µM; in [5], 1.66 µM. Further, the GI50 was 2.48 µM in assay [6] and 1.76 µM in assay [7]. Also, the TGI in assay [9] was found to be 5.57 µM; in assay [2] it was 2.08 µM; in [3], 3.25 µM; in assay [10] it was 4.82 µM; in assay [4] it was 2.9 µM; in [5], 3.4 µM. For the same molecule, the TGI amounted to 6.1 µM in [6] and 3.39 µM in assay [7].
As for `COc1ccc(-n2c(C)nc3c(c(C)nn3-c3ccccc3)c2=O)cc1`, the GI50 in assay [9] was 0.057 µM; in assay [2], 0.0483 µM; in assay [3] it was 0.0789 µM; in assay [10], 0.0528 µM; in assay [4], 0.0375 µM; in assay [5], 0.298 µM. The GI50 in assay [6] was 0.108 µM; in [7] it was 0.516 µM. Besides, the TGI in [9] was over 100 µM; in assay [2], over 100 µM; in [3], over 100 µM; in assay [10], over 100 µM; in assay [4] it was 9.1 µM; in [5], over 100 µM. For the same molecule, the TGI in assay [6] was over 33.6 µM; in assay [7], over 100 µM.
In the case of `COc1ccc(/C=C\c2cc(OC)c(OC)c(OC)c2)cc1OCC(=O)Nc1nc2ccc(OC(F)(F)F)cc2s1`, the GI50 in assay [9] was 4.12 µM; in [2] it was 3.23 µM; in [3], 7.09 µM; in assay [10], 4.33 µM; in [4] it was 3.16 µM; in assay [5], 31.2 µM. Further, the GI50 is 5.83 µM in assay [6] and 3.29 µM in [7]. Further, the TGI is over 100 µM in assay [9]; over 100 µM in [2]; over 100 µM in assay [3]; over 100 µM in [10]; 21.7 µM in assay [4]; over 100 µM in assay [5]. The TGI in [6] and in [7] was over 100 µM each time.
`COC(=O)n1c(CBr)c(Br)c2ccccc21`: the TGI in [9] is 70.2 µM; in assay [1] it was over 100 µM; in assay [2], over 100 µM; in assay [3], 54 µM; in [4], 34.5 µM; in [5], 79.2 µM. For the same molecule, the TGI was found to be 58.7 µM in assay [6] and 47 µM in [7].
As to `Cc1ccc(F)cc1NC(=O)c1cc(Cl)ccc1Nc1ccccc1`, the GI50 in assay [9] was 20.2 µM; in assay [2], over 100 µM; in assay [3], 79 µM; in assay [10] it was 36.1 µM; in [4], over 100 µM; in assay [5], over 100 µM. For the same molecule, the GI50 in assay [6] was 51.2 µM; in assay [7], over 100 µM. Moreover, the TGI in [9], in [2], in assay [3], in [10], in assay [4] and in assay [5] was over 100 µM each time. Moreover, the TGI in assay [6] and in assay [7] was over 100 µM in each case.
With `COc1ccc2c(c1)C(=O)c1c-2n(CCCN2CCOCC2)c(=O)c2cc([N+](=O)[O-])ccc12`, the GI50 in assay [9] was under 0.01 µM; in [2] it was under 0.0151 µM; in [3] it was under 0.01 µM; in assay [10], 0.719 µM; in assay [4] it was under 0.01 µM; in assay [5], under 0.01 µM. Also, the GI50 in [6] was under 0.01 µM; in assay [7], 0.0763 µM. Besides, the TGI in [2] was determined as 13.3 µM; in [3], 0.364 µM; in [10], 22.3 µM; in [5] it was 0.889 µM; in [6] it was 0.147 µM; in assay [7], 3.95 µM.
